Laboratory results published in US6946465B2, “Immunosuppressive effects of pteridine derivatives” (4 AZA Bioscience NV, priority 1999, dated 2005).

Legend:
Format in all cases: cell-based, human
[1] = system: highly purified T cells stimulated by anti-CD28 mAb; assay: CD28 assay: T-cell proliferation stimulated by anti-CD28 mAb + PMA (BrdU); details: Table 1; anti-CD28 mAb + PMA 0.5 ng/ml, 48 h
Description: (§1) Various models may be used for testing an immunosuppressive effect. In vivo, for example, different transplantation models are available. They are strongly influenced by different immunogenicities, depending on the donor and recipient species used and depending on the nature of the transplanted organ. The survival time of transplanted organs can thus be used to measure the suppression of the immune response. In vitro, the most used models are lymphocyte activation tests. Usually activation is measured via lymphocyte proliferation. Inhibition of proliferation thus always means immunosuppression under the experimental conditions applied. There exist different stimuli for lymphocyte activation: • a) co-culture of lymphocytes of […] (mixed lymphocyte reaction, hereinafter referred as MLR) in a so-called mixed lymphocyte culture test: lymphocytes expressing different minor and major antigens of the HLA-DR type (=alloantigens) activate each other non-specifically. • b) a CD3 assay here there is an activation of the T-lymphocytes via an exogenously added antibody (OKT3).
(§2) All reagents were dissolved in 0.5 ml dimethylsulfoxide (hereinafter referred as DMSO) and further diluted in culture medium before use for the following in vitro experiments. The commercially available culture medium consisted of RPMI-1640+10% foetal calf serum (FCS).
(§3) T cells were purified by removing non-T cells. Briefly, monocytes were removed by cold agglutination. The resulting lymphoid cells were further purified by a cell enrichment immunocolumn [Cellect Human T commercially available from Biotex, Edmonton, Alberta, Canada)] by a process of negative selection.
(§4) Highly purified T cells (10^6/ml) were stimulated by immobilized anti-CD3 or anti-CD28 monoclonal antibodies (hereinafter referred as mAb) in the presence of PMA. Anti-CD3 mAb (available from CLB, Amsterdam, Netherlands) were fixed on the 96-microwell plates by incubating the wells with 50 μl of mAb solution (1/800 dilution in culture medium). For anti-CD28 mAb (available from CLB, Amsterdam, Netherlands) 50 μl (1/650 dilution in culture medium) was added directly to the wells. Further, a 20 μl phorbol myristate acetate (hereinafter referred as PMA (commercially available from Sigma, St. Louis, Mo., USA) solution (final concentration: 0.5 ng/ml) was added. Subsequently, 20 μl of a compound described in some of the previous examples were added by serial dilution in triplicate wells. Finally 100 μl of the T-cell suspension (10^6/ml) was added. After 48-hour incubation at 37° C. in 5% CO2 20 μl of a bromo-deuridine (hereinafter referred as BrdU) 100 μM solution (commercially available as Cell Proliferation Elisa from Boehringer-Mannheim Belgium) was added to each well. After a further overnight incubation, T-cell proliferation was measured using a colorimetric immunoassay for qualification of cell proliferation based on the incorporation of BrdU during DNA synthesis. Optical density (hereinafter referred as OD) was measured by a Behring EL311 plate reader at 450 nm (reference wavelength: 690 nm). Inhibition of proliferation by a compound (drug) described in some of the previous examples was counted using the formula: [formula]

[2] = system: peripheral blood mononuclear cells (PBMC) with allogeneic PBMC or RPMI1788 stimulator cells; assay: Mixed lymphocyte reaction (MLR) test, [3H]-thymidine incorporation; details: Table 1; 5 days incubation + 16 h thymidine
Description: as §1, §2
Peripheral blood mononuclear cells (hereinafter referred as PBMC) were isolated from heparinized peripheral blood by density gradient centrifugation over Lymphoprep (Nycomed, Maorstua, Norway). Allogeneic PBMC or Eppstein-Barr Virus-transformed human B cells [commercially available under the trade name RPM11788 (ATCC name CCL156)] which strongly express B7-1 and B7-2 antigens were used as stimulator cells after irradiation with 30 Gy. MLR was performed in triplicate wells. After 5 days incubation at 37° C., 1 μCi [^3 H]-thymidine was added to each cup. After a further 16 hours incubation, cells were harvested and counted in a β-counter. Inhibition of proliferation by a compound (drug) described in some of the previous examples was counted using the formula: [formula] wherein cpm is the thymidine count per minute. Assays for CD3 and CD 28

[3] = system: highly purified T cells stimulated by immobilized anti-CD3 mAb; assay: CD3 assay: T-cell proliferation stimulated by anti-CD3 mAb + PMA (BrdU); details: Table 1; anti-CD3 mAb + PMA 0.5 ng/ml, 48 h; read-out: CD 3 IC50
Description: as §1, §2, §3, §4

| SMILES | IC50 [1] [µM] | IC50 [2] [µM] | IC50 [3] [µM] |
| --- | --- | --- | --- |
| Cn1c(=O)c2nc(Cl)c(C#N)nc2n(C)c1=O [Example 51, 6-chloro-7-cyano-1,3-dimethyl-lumazine] | 56 | 116 | 56 |
| CC(C)CNc1nc2c(nc1C#N)c(=O)n(C)c(=O)n2C [Example 52, 6-cyano-7-isobutylamino-1,3-dimethyl-lumazine] | 80 | 116 | 116 |
| Cn1c(=O)c2nc(C#N)c(NCc3ccccc3)nc2n(C)c1=O [Example 53, 6-cyano-7-benzylamino-1,3-dimethyl-lumazine] | 104 | 140 | 140 |
| CC(=O)Nc1nc2c(nc1C#N)c(=O)n(C)c(=O)n2C [Example 54, 6-cyano-7-acetenylamino-1,3-dimethyl-lumazine] | 80 | 140 | 104 |
| Cn1c(=O)c2nc(C#N)c(NC3CCCCC3)nc2n(C)c1=O [Example 55, 6-cyano-7-cyclohexylamino-1,3-dimethyl-lumazine] | 92 | 15 | 92 |
| CCCCN(CCCC)c1nc2c(nc1C#N)c(=O)n(C)c(=O)n2C [Example 56, 6-cyano-7-dibutylamino-1,3-dimethyl-lumazine] | 116 | 12 | 152 |
| Cn1c(=O)c2nc(C#N)c(-n3ccnc3)nc2n(C)c1=O [Example 57, 6-cyano-7-imidazolyl-1,3-dimethyl-lumazine] | 15 | 48 | 16.8 |
| CC(C)Sc1nc2c(nc1C#N)c(=O)n(C)c(=O)n2C [Example 58, 6-cyano-7-mercaptoisopropyl-1,3-dimethyl-lumazine] | 116 | 116 | 104 |
| Cn1c(=O)c2nc(C#N)c(SCc3ccccc3)nc2n(C)c1=O [Example 59, 6-cyano-7-mercaptobenzyl-1,3-dimethyl-lumazine] | 16 | > 200 | 18.5 |
| CCCCNc1nc2c(nc1C(=O)OCC)c(=O)n(C)c(=O)n2C [Example 60, 6-ethylcarboxylate-7-n-butylamino-1,3-dimethyl-lumazine] | 92 | 13 | 56 |
| CCOC(=O)c1nc2c(=O)n(C)c(=O)n(C)c2nc1NCC(C)(C)C [Example 61, 6-ethylcarboxylate-7-neopentylamino-1,3-dimethyl-lumazine] | 16 | 16 | 80 |
| C=CCNc1nc2c(nc1C(=O)OCC)c(=O)n(C)c(=O)n2C [Example 62, 6-ethylcarboxylate-7-(2-propenylamino)-1,3-dimethyl-lumazine] | 56 | 60 | 92 |
| CCOC(=O)c1nc2c(=O)n(C)c(=O)n(C)c2nc1N1CCCCC1 [Example 63, 6-ethylcarboxylate-7-piperidinyl-1,3-dimethyl-lumazine] | 80 | 104 | 128 |
| CCOC(=O)c1nc2c(=O)n(C)c(=O)n(C)c2nc1NNc1ccccc1 [Example 64, 6-ethylcarboxylate-7-phenylhydrazino-1,3-dimethyl-lumazine] | 12 | 20 | 56 |
| CCOC(=O)c1nc2c(=O)n(C)c(=O)n(C)c2nc1SCC [Example 65, 6-ethylcarboxylate-7-mercaptoethyl-1,3-dimethyl-lumazine] | 116 | 140 | 116 |
| CC(C)Nc1nc2c(nc1C=O)c(=O)n(C)c(=O)n2C [Example 66, 6-formyl-7-isopropylamino-1,3-dimethyl-lumazine] | 92 | 92 | 68 |
| Cn1c(=O)c2nc(C=O)c(NCCO)nc2n(C)c1=O [Example 67, 6-formyl-7-hydroxyethylamino-1,3-dimethyl-lumazine] | 104 | 104 | 104 |
| Cn1c(=O)c2nc(C=O)c(N3CCCCCC3)nc2n(C)c1=O [Example 68, 6-formyl-7-(1-azacycloheptyl)-1,3-dimethyl-lumazine] | 116 | 80 | 80 |
| Cn1c(=O)c2nc(C=O)c(N3CCSCC3)nc2n(C)c1=O [Example 69, 6-formyl-7-thiomorpholino-1,3-dimethyl-lumazine] | 116 | 116 | 80 |
| Cn1c(=O)c2nc(C=O)c(NC3CC3)nc2n(C)c1=O [Example 70, 6-formyl-7-cyclopropylamino-1,3-dimethyl-lumazine] | 116 | 80 | 80 |
| Cn1c(=O)c2nc(C(Cl)Cl)c(SCc3ccccc3)nc2n(C)c1=O [Example 71, 6-dichloromethyl-7-mercaptobenzyl-1,3-dimethyl-lumazine] | > 20 | 56 | > 20 |
| CCOC(=O)CSc1nc2c(nc1C(Cl)Cl)c(=O)n(C)c(=O)n2C [Example 72, 6-dichloromethyl-7-ethylmercaptoacetate-1,3-dimethyl-lumazine] | 19 | 116 | > 20 |
| Cc1nc2c(nc1NCc1ccccc1)c(=O)n(C)c(=O)n2C [Example 73, 6-benzylamino-1,3,7-trimethyl-lumazine] | 128 | 44 | 92 |
| Cc1nc2c(nc1N1CCCC1)c(=O)n(C)c(=O)n2C [Example 74, 6-pyrrolidinyl-1,3,7-trimethyl-lumazine] | 128 | 140 | 92 |
| Cn1c(=O)c2nc(Cl)c(N3CCCCC3)nc2n(C)c1=O [Example 75, 6-chloro-7-piperidyl-1,3-diimethyl-lumazine] | 80 | 160 | 80 |
| Cc1nc2c(=O)n(C)c(=O)n(C)c2nc1C=Cc1ccccc1 [Example 76, 7-(2-phenylethenyl)-1,3,6-trimethyl-lumazine] | 116 | 120 | 68 |
| Cn1c(=O)c2nc(C=Cc3ccc(C(F)(F)F)cc3)cnc2n(C)c1=O [Example 77, 6-[2-(p-trifluoromethylphenyl)ethenyl]-1,3-dimethyllumazine] | 140 | 17 | > 200 |
| Cn1c(=O)c2nc(C=Cc3ccc(C(F)(F)F)cc3)cnc2n(C)c1=O [Example 78, 6-[2-(p-trifluoromethylphenyl)ethenyl]-1,3-dimethyllumazine] | 164 | 17 | > 200 |
| Cn1c(=O)c2nc(C=Cc3ccccc3)cnc2n(C)c1=O [Example 79, 6-[2-phenylethenyl]-1,3-dimethyllumazine] | > 200 | 17 | 104 |
